The record followed here is patent EP0428854A2, “Process for the preparation of 4-(4-isobutylphenyl)-butyraldehyde” (BOEHRINGER INGELHEIM KG, priority 1989, dated 1991).

Structures are written as SMILES.

The assay deals with T1, PAF-Rezeptor (Homo sapiens, UniProt P25105).
T1 construct: endogenous in cells; host or cells: intact human platelets from blood of healthy donors, purified on Sepharose CL-2B
In words: [3H]PAF receptor binding on vital human platelets (competitive displacement of the radioligand). As to conditions: potency of the (-)-enantiomer relative to the other enantiomer, [³H]PAF binding. An excerpt: Überraschenderweise wurde gefunden, daß das (-)-Enantiomere 40-mal wirkungsstärker ist. Die pharmakologische Wirkung wurde anhand des nachfolgenden Experiments bestimmt: [³H]PAF-Rezeptor-Bindung an vitalen humanen Blutplättchen
Bestimmt wird die konkurrierende Wechselwirkung von Prüfsubstanzen (hier PAF-Antagonisten) mit der bekannten Wechselwirkung des Radioliganden [³H]PAF zum gleichen Rezeptor. Die Bindungsstudien wurden an vitalem menschlichen Thrombozyten vorgenommen. Blutproben von gesunden Spendern wurden mit ACD-Puffer verdünnt und zentrifugiert (15 Min., 160 x g). Das blättchenreiche Plasma wird durch Chromatographie an Sepharose CL-2B [Zum Eluieren: HEPES-Puffer, pH 7,4 20°C] gereinigt.
Definierte Mengen [z.B. 800 µl] der Blättchensuspension wurden 90 Min. bei Raumtemperatur inkubiert, d.h. vermischt mit: • a) einer […] [³H]PAF-Lösung, verdünnt mit Puffer. • b) mit einer 30 pmolaren [³H] PAF-Lösung, die gleichzeitig eine µmolare (nicht markierte) PAF-Lösung enthält, • c) mit der 30 pmolaren [³H]PAF-Lösung und den Lösungen der Prüfsubstanzen (unterschiedliche Konzentrationen) • a) Dient zur Ermittlung der totalen Bindung, • b) dient zur Ermittlung der unspezifischen Bindung.
Die Reaktion wurde durch Vakuumfiltration abgestoppt. Die Filter mit den Blutplättchen werden mit Szintilationsflüssigkeit versetzt und die verbliebene Radioaktivität in einem Counter gemessen. […]

T1 sequence (P25105 whole entry): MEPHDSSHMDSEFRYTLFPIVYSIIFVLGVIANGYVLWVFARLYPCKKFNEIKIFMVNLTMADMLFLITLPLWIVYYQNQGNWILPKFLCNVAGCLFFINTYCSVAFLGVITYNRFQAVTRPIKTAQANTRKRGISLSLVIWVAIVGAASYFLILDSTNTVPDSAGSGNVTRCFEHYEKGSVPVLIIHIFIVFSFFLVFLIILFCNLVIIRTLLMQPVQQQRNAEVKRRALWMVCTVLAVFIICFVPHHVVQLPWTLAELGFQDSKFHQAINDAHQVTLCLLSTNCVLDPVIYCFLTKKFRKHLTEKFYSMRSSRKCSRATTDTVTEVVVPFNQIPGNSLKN

Regarding `Cc1nnc2n1-c1sc(CCc3ccc(CC(C)C)cc3)cc1C(c1ccccc1Cl)=NC2C` (single isomer, unassigned; (-)) [(-)Enantiomer, (-)-4-(2-Chlorphenyl)-2-[2-(4-isobutylphenyl)ethyl]-6,9-dimethyl-6H-thieno[3,2-f][1,2,4]triazolo[4,3-a][1,4]diazepin], the wirkungsstärker is on record as 40 mal.
